PubChem BioAssay (NCI)
Values joined by “and” are separate entries in the source; they are usually repeats but may differ in a detail not shown here. Equal entries are not always repeated.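 Five compound concentrations were applied to cells in 96-well plates for 48 hours; endpoints were derived by simple linear interpolation of the resulting dose-response curve. Abbreviation: GI50, concentration required for 50% inhibition of growth. TGI marks complete inhibition of growth.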

What was measured:
Test in all cases: NCI tumour cell line growth inhibition, 48 h
CAKI-1 renal = system: CAKI-1 renal
HCC-2998 colon = system: HCC-2998 colon
HCT-15 colon = system: HCT-15 colon
HT29 colon = system: HT29 colon
MDA-MB-231 breast = system: MDA-MB-231 breast
OVCAR-8 ovarian = system: OVCAR-8 ovarian
RPMI-8226 leukemia = system: RPMI-8226 leukemia
SK-OV-3 ovarian = system: SK-OV-3 ovarian
SNB-75 CNS = system: SNB-75 CNS
SR leukemia = system: SR leukemia

## COC(=O)[C@H](Cc1cn(C)cn1)NC(=O)[C@H](CC(C)C)NC(=O)Nc1cc(C(F)(F)F)cc(C(F)(F)F)c1
CAKI-1 renal
  GI50: > 10 µM
  TGI: > 10 µM
HCC-2998 colon
  GI50: 5.62 µM
  TGI: > 10 µM
HCT-15 colon
  GI50: > 10 µM
  TGI: > 10 µM
HT29 colon
  GI50: 8.05 µM
  TGI: > 10 µM
MDA-MB-231 breast
  GI50: 4.64 µM
  TGI: > 10 µM
OVCAR-8 ovarian
  GI50: 9.54 µM
  TGI: > 10 µM
RPMI-8226 leukemia
  GI50: 4.98 µM
  TGI: > 10 µM
SK-OV-3 ovarian
  GI50: > 10 µM
  TGI: > 10 µM
SNB-75 CNS
  GI50: > 10 µM
  TGI: > 10 µM
SR leukemia
  GI50: 2.59 µM
  TGI: 8.41 µM

## CCCCCCCCCCCCCCCCn1cc[n+](C)c1
CAKI-1 renal
  GI50: 0.385 µM
  TGI: 2.33 µM
HCC-2998 colon
  GI50: 0.277 µM
  TGI: 1.13 µM
HCT-15 colon
  GI50: 0.989 µM
  TGI: 2.15 µM
HT29 colon
  GI50: 0.291 µM
  TGI: 1.25 µM
MDA-MB-231 breast
  GI50: 0.814 µM
  TGI: 2.23 µM
RPMI-8226 leukemia
  GI50: 0.024 µM
  TGI: 0.19 µM
SK-OV-3 ovarian
  GI50: 0.941 µM
  TGI: 3.17 µM
SR leukemia
  GI50: 0.0742 µM
  TGI: 0.787 µM

## COc1cc2c3c(n(CCCN=[N+]=[N-])c(=O)c2cc1OC)-c1ccc(F)cc1C3=O
CAKI-1 renal
  GI50: 4.56 µM
  TGI: > 100 µM
HCC-2998 colon
  GI50: 16.3 µM
  TGI: > 100 µM
HCT-15 colon
  GI50: 79.3 µM
  TGI: > 100 µM
HT29 colon
  GI50: 12.3 µM
  TGI: > 100 µM
MDA-MB-231 breast
  GI50: > 100 µM
  TGI: > 100 µM
OVCAR-8 ovarian
  GI50: 21.2 µM
  TGI: > 100 µM
RPMI-8226 leukemia
  GI50: 1.7 µM
  TGI: 10.8 µM
SK-OV-3 ovarian
  GI50: 11.6 µM
  TGI: > 100 µM
SNB-75 CNS
  GI50: 21.1 µM
  TGI: 90.2 µM
SR leukemia
  GI50: 0.449 µM
  TGI: 2.68 µM

## CC(=O)OCC1OC(SC2=N/C(=C\c3ccc(Br)s3)C(=O)N2c2ccccc2)C(OC(C)=O)C(OC(C)=O)C1OC(C)=O (centres undefined)
CAKI-1 renal
  GI50: 13.4 µM and 85.7 µM
  TGI: 32.5 µM and > 100 µM
HCC-2998 colon
  TGI: > 100 µM
HCT-15 colon
  TGI: > 100 µM
HT29 colon
  GI50: > 100 µM and 28.6 µM
  TGI: > 100 µM
MDA-MB-231 breast
  TGI: > 100 µM
OVCAR-8 ovarian
  GI50: 27.9 µM and 70.3 µM
  TGI: > 100 µM
RPMI-8226 leukemia
  GI50: 37.7 µM and 7.96 µM
  TGI: > 100 µM and 61 µM
SNB-75 CNS
  GI50: 25.1 µM and > 100 µM
  TGI: 61.4 µM and > 100 µM
SR leukemia
  GI50: 35.6 µM and 9.68 µM
  TGI: > 100 µM

## Oc1ccc(N=Nc2ccc(Br)cc2)c(O)c1
CAKI-1 renal
  GI50: 4 µM
  TGI: 21 µM
HCC-2998 colon
  GI50: 3.55 µM
  TGI: 12 µM
HCT-15 colon
  GI50: 3.42 µM
  TGI: 19.4 µM
HT29 colon
  GI50: 15.5 µM
  TGI: 77.9 µM
MDA-MB-231 breast
  GI50: 3.47 µM
  TGI: 16.6 µM
OVCAR-8 ovarian
  GI50: 3.69 µM
  TGI: 21.2 µM
RPMI-8226 leukemia
  GI50: 1.76 µM
  TGI: 5.35 µM
SK-OV-3 ovarian
  GI50: 3.24 µM
  TGI: 18.3 µM
SNB-75 CNS
  GI50: 2.79 µM
  TGI: 21.8 µM
SR leukemia
  GI50: 0.337 µM
  TGI: 2.54 µM

## OCC1OC(N2C=C(c3nc4ccccc4s3)C3C=CC=CC32)C(O)C(O)C1O (centres undefined)
CAKI-1 renal
  GI50: 16.9 µM
  TGI: > 50 µM
HCT-15 colon
  GI50: 31.1 µM
  TGI: > 50 µM
HT29 colon
  GI50: 19 µM
  TGI: > 50 µM
MDA-MB-231 breast
  GI50: 15.4 µM
  TGI: > 50 µM
OVCAR-8 ovarian
  GI50: 18.9 µM
  TGI: > 50 µM
RPMI-8226 leukemia
  GI50: 11.4 µM
  TGI: 36.4 µM
SK-OV-3 ovarian
  GI50: 41.1 µM
  TGI: > 50 µM
SNB-75 CNS
  GI50: 18.1 µM
  TGI: > 50 µM
SR leukemia
  GI50: 15.9 µM
  TGI: > 50 µM

## CC(C)[C@@]12C[C@@H](OC(=O)C3CO3)[C@@](C)(O1)[C@@H]1CC[C@@H](C)[C@H]1[C@@H]2OC(=O)/C=C/c1ccccc1 (some centres undefined)
CAKI-1 renal
  GI50: 13.1 µM
  TGI: 54.8 µM
HCC-2998 colon
  GI50: 18.7 µM
  TGI: 35.8 µM
HCT-15 colon
  GI50: 21.1 µM
  TGI: 60.6 µM
HT29 colon
  GI50: 33.6 µM
  TGI: > 100 µM
MDA-MB-231 breast
  GI50: 13.3 µM
  TGI: 31.2 µM
OVCAR-8 ovarian
  GI50: 5.33 µM
  TGI: 60.3 µM
RPMI-8226 leukemia
  GI50: 20.4 µM
  TGI: 55.2 µM
SK-OV-3 ovarian
  GI50: 18.6 µM
  TGI: 46.8 µM
SNB-75 CNS
  GI50: 10.8 µM
  TGI: 30.9 µM
SR leukemia
  GI50: 29.8 µM
  TGI: > 100 µM

## O=C(Nc1ccc(I)cc1F)c1cc(Br)ccc1O
CAKI-1 renal
  GI50: 0.308 µM
  TGI: 2.34 µM
HCC-2998 colon
  GI50: 2.77 µM
  TGI: 10.7 µM
HCT-15 colon
  GI50: 0.743 µM
  TGI: 6.72 µM
HT29 colon
  GI50: 3.29 µM
  TGI: > 35.1 µM
MDA-MB-231 breast
  GI50: 0.457 µM
  TGI: 4.73 µM
OVCAR-8 ovarian
  GI50: 0.83 µM
  TGI: > 24.2 µM
RPMI-8226 leukemia
  GI50: 0.321 µM
  TGI: 1.63 µM
SK-OV-3 ovarian
  GI50: 0.681 µM
  TGI: 2.92 µM
SNB-75 CNS
  GI50: 0.451 µM
  TGI: 2.23 µM
SR leukemia
  GI50: 0.564 µM
  TGI: > 100 µM

## COc1ccc(Nc2ncc(I)c(NCCCNC(=O)C3CCC3)n2)cc1
CAKI-1 renal
  GI50: 1.32 µM
  TGI: 16 µM
HCC-2998 colon
  GI50: 13.5 µM
  TGI: 67.3 µM
HCT-15 colon
  GI50: 5.88 µM
  TGI: 52.1 µM
HT29 colon
  GI50: 13.1 µM
  TGI: 71 µM
MDA-MB-231 breast
  GI50: 1.66 µM
  TGI: 5.31 µM
OVCAR-8 ovarian
  GI50: 8.6 µM
  TGI: > 100 µM
RPMI-8226 leukemia
  GI50: 10.3 µM
  TGI: 53.8 µM
SK-OV-3 ovarian
  GI50: 4.81 µM
  TGI: 25.5 µM
SNB-75 CNS
  GI50: 0.464 µM
  TGI: 7.75 µM
SR leukemia
  GI50: 4.91 µM
  TGI: > 100 µM

## CCCCCCOC(=O)CC1=C(C)/C(=C/c2[nH]c(-c3ccc[nH]3)cc2OC)N=C1C
CAKI-1 renal
  GI50: 0.0706 µM
  TGI: 1.12 µM
HCT-15 colon
  GI50: 0.0315 µM
  TGI: 1.14 µM
HT29 colon
  GI50: 0.0331 µM
  TGI: 1.05 µM
MDA-MB-231 breast
  GI50: 0.0336 µM
  TGI: 0.626 µM
OVCAR-8 ovarian
  GI50: 0.238 µM
  TGI: 1.21 µM
SK-OV-3 ovarian
  GI50: 0.279 µM
  TGI: 1.24 µM
SNB-75 CNS
  GI50: 0.0372 µM
  TGI: 0.3 µM
SR leukemia
  GI50: 0.0307 µM
  TGI: 0.182 µM

## Cc1ccc(/C(=N/NS(=O)(=O)c2cc(C)c(Cl)cc2Cl)Sc2cc(Cl)c(C)cc2S(N)(=O)=O)cc1
CAKI-1 renal
  GI50: > 100 µM
  TGI: > 100 µM
HCT-15 colon
  GI50: > 100 µM
  TGI: > 100 µM
HT29 colon
  GI50: > 100 µM
  TGI: > 100 µM
MDA-MB-231 breast
  GI50: > 100 µM
  TGI: > 100 µM
OVCAR-8 ovarian
  GI50: > 100 µM
  TGI: > 100 µM
RPMI-8226 leukemia
  GI50: 51.3 µM
  TGI: > 100 µM
SK-OV-3 ovarian
  GI50: > 100 µM
  TGI: > 100 µM
SNB-75 CNS
  GI50: > 100 µM
  TGI: > 100 µM
SR leukemia
  GI50: 41 µM
  TGI: > 100 µM

## CN1CCc2ccccc2C1Cc1ccccc1NC(=O)c1sc2ccccc2c1Cl (centres undefined)
CAKI-1 renal
  TGI: > 100 µM
HCC-2998 colon
  TGI: > 100 µM
HCT-15 colon
  TGI: > 100 µM
MDA-MB-231 breast
  TGI: > 100 µM
OVCAR-8 ovarian
  TGI: > 100 µM
RPMI-8226 leukemia
  TGI: > 100 µM
SK-OV-3 ovarian
  TGI: > 100 µM
SNB-75 CNS
  TGI: > 100 µM
SR leukemia
  TGI: > 100 µM

## COc1cc2c3c(n(CCCN=[N+]=[N-])c(=O)c2cc1OC)-c1ccc([N+](=O)[O-])cc1C3=O
CAKI-1 renal
  GI50: > 100 µM
  TGI: > 100 µM
HCT-15 colon
  GI50: > 100 µM
  TGI: > 100 µM
HT29 colon
  GI50: > 100 µM
  TGI: > 100 µM
MDA-MB-231 breast
  GI50: 20.3 µM
  TGI: > 100 µM
OVCAR-8 ovarian
  GI50: > 100 µM
  TGI: > 100 µM
RPMI-8226 leukemia
  GI50: 90.7 µM
  TGI: > 100 µM
SK-OV-3 ovarian
  GI50: > 100 µM
  TGI: > 100 µM
SNB-75 CNS
  GI50: 20.9 µM
  TGI: 66.9 µM
SR leukemia
  GI50: 4.38 µM
  TGI: 22.9 µM

## COc1cccc(/C=C2\CCC(CN(C)C)C2=O)c1 (centres undefined)
CAKI-1 renal
  TGI: 15.7 µM
HCC-2998 colon
  TGI: 24.4 µM
HCT-15 colon
  TGI: 7.97 µM
HT29 colon
  TGI: 40.7 µM
MDA-MB-231 breast
  TGI: 14 µM
OVCAR-8 ovarian
  TGI: 9.55 µM
SK-OV-3 ovarian
  TGI: 29.2 µM
SNB-75 CNS
  TGI: 38.2 µM
SR leukemia
  TGI: 8.43 µM
